{"source": "patent US5849557A", "about": "“Oxidized phospholipid degrading enzyme and gene thereof” (Suntory Limited, priority 1993, dated 1998)", "key": {"[1]": {"target": "T1, oxidized phospholipid degrading enzyme (purified enzyme) (Bos taurus, UniProt Q29460)", "T1 construct": "from tissue; host or cells: bovine brain gray matter, soluble cytoplasmic fraction", "T1 sequence (Q29460 2-232)": "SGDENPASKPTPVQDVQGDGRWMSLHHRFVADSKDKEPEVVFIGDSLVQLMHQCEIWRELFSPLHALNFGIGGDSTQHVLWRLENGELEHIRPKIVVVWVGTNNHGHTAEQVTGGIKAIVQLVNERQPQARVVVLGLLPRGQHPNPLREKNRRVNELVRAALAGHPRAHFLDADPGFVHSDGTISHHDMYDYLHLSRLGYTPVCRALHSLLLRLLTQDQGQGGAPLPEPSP", "T1 sequence (P68401 2-229 partner limits assumed)": "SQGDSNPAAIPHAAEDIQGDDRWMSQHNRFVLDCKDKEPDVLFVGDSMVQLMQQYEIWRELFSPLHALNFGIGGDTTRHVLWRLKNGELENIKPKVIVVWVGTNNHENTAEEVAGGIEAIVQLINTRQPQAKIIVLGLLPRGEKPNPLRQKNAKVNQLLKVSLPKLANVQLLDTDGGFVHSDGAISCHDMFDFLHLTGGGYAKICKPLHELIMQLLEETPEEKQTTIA", "T1 sequence (P43033 2-410 A26E/E154Q partner limits assumed)": "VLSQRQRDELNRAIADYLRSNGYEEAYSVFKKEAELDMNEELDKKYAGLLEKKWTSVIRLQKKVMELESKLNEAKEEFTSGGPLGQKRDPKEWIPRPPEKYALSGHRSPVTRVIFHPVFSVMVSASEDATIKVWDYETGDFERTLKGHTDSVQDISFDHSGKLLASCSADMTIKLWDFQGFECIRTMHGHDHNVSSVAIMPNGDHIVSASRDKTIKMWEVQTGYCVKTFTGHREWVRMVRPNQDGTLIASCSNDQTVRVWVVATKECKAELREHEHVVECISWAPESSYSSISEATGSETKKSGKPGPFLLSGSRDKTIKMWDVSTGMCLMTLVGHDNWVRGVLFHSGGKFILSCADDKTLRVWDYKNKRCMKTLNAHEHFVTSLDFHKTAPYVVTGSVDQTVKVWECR", "assay": "Substrate specificity of the purified enzyme", "format": "biochemical, bovine", "protocol": "(§1) They were mixed in a test tube over ice and then incubated at 37° C. for 30 minutes. Thereafter, 560 μl of a chloroform-methanol (1:1) mixture were added to terminate the reaction. After the resulting mixture was vigorously mixed for 5 minutes by a vortex stirrer, the mixture was centrifuged for 5 minutes at 3,000 rpm to separate it into two layers. From the upper layer, 300 μl were collected, in which 3 ml of \"Clearsol I\" (product of NACALAI TESQUE INC.) were mixed. The radioactivity was measured by a liquid scintillation counter. From the intensity of the radioactivity, the amount of the dicarboxylic acid formed as a result of 2-hydrolysis was calculated to determine the enzyme activity.\n(§2) Namely, Tris-HCl buffer (final concentration: 50 mM, pH 7.4) which contained as a substrate 20 nmol (6,000 dpm) of the labeled PAF obtained in step (a) was added with 5 mM EDTA or 4 mM CaCl2 as needed, to which the sample (enzyme source) to be measured was added to give a total volume of 250 μl.\nas §1, with “2.5 ml” for “560 μl”, “(4:1)” for “(1:1)”, “Subsequent to addition of 0.25 ml of water,” for “After”, “stirrer and then” for “stirrer, the mixture was”, “600” for “300”, “acetic” for “the dicarboxylic”"}, "[2]": {"target": "T1, oxidized phospholipid degrading enzyme (purified enzyme)", "assay": "biochemical", "design": "species or system bovine"}, "[3]": {"tested_on": "oxidized phospholipid degrading enzyme", "assay": "Influence of calcium ions on the enzyme activity", "format": "biochemical, bovine", "conditions": "4 mM calcium chloride", "protocol": "as §2, with “Measurement of the oxidized phospholipid degrading enzyme by using PAF was conducted in a similar manner to Reference Example 2. Namely,” for “Namely,”\nas §1, with “2.5 ml” for “560 μl”, “(4:1)” for “(1:1)”, “Subsequent to addition of 0.25 ml of water,” for “After”, “stirrer and then” for “stirrer, the mixture was”, “600” for “300”, “acetic” for “the dicarboxylic”\nThe enzyme activity was measured by the measuring method of Reference Example 3 except that 4 mM CaCl2 was added instead of 5 mM of EDTA."}, "[4]": {"target": "T2, 30 kDa subunit of the oxidized phospholipid degrading enzyme (bovine)", "T2 chain": "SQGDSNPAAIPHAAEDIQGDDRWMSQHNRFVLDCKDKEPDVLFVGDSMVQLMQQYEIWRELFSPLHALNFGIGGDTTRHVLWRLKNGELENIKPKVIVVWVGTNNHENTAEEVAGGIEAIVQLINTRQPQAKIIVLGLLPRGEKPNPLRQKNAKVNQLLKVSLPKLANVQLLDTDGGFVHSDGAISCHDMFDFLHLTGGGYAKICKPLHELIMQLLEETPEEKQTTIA", "assay": "heparin Sepharose or sulfated Cellulofine column treatment of the native enzyme", "protocol": "Against buffer A, 15 ml of the roughly purified fraction obtained in step (e) of Example 1 were dialyzed. The solution so dialyzed was then applied to a column (1×5 cm) of \"heparin Sepharose\" (product of Pharmacia AB) which had been equilibrated with buffer A, whereby about 80% of the enzyme activity passed through the column without adsorption. When the column was washed with buffer A subsequent to the passage of the dialyzed solution, the activity was gradually eluted with tailing.\nAfter the column was washed with about 30 ml of buffer A, the enzyme was eluted with a 30 ml linear gradient of NaCl (0M to 1.5M) in buffer A. The enzyme activity was eluted around about 0.3M NaCl concentration. […] Further, the fractions eluted around about 0.6M NaCl concentration gave only one spot at 45 kDa."}, "[5]": {"target": "T3, 30 kDa-29 kDa complex without the 45 kDa subunit (bovine)", "T3 chain 1": "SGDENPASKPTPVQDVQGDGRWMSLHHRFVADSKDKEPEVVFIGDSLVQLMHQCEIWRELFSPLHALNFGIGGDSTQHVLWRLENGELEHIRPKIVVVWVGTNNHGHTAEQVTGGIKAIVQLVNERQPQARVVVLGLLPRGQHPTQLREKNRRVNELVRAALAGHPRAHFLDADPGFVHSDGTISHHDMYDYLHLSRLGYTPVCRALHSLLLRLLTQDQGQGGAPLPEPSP", "T3 chain 2": "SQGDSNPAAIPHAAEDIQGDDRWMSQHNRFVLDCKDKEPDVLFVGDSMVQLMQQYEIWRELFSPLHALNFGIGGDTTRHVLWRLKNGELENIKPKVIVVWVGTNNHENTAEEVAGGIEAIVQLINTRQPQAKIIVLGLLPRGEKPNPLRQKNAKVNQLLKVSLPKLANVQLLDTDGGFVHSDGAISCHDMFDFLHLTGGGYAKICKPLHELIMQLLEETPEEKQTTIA", "assay": "co-purification of the native enzyme; gel filtration and SDS-PAGE"}, "[6]": {"conditions": "in the presence of 4 mM CaCl2, method of Dole et al."}}, "data": [{"molecule": "CCCCCCCCCCCCCCCCOC[C@H](COP(=O)([O-])OCC[N+](C)(C)C)OC(C)=O", "note": "[PAF, 1-hexadecyl-2-acetyl-sn-glycero-3-phospho-choline]", "values": [{"measurement": "Degrading activity / hydrolysis by the enzyme (in words)", "setting": "[1]", "value": "shows degrading activity"}, {"measurement": "Specific activity", "setting": "[1]; method of Reference Examples 2 and 3", "value": 1.45, "unit": "nmol/min/mg"}]}, {"molecule": "O=C(CBr)c1ccc(Br)cc1", "note": "[BPB, p-bromophenacyl bromide]", "values": [{"measurement": "Inhibition of enzyme reactions (in words)", "setting": "[2]", "value": "inhibited"}, {"measurement": "Inhibition of the purified enzyme (in words, summary of Table 3)", "setting": "[2]", "value": "inhibited"}, {"measurement": "inhibition at 100 µM", "setting": "[2]", "value": 20, "unit": "%"}, {"measurement": "inhibition at 1000 µM", "setting": "[2]", "value": 97, "unit": "%"}]}, {"molecule": "NC(=O)CI", "note": "[IAM, iodoacetamide]", "values": [{"measurement": "Inhibition of enzyme reactions (in words)", "setting": "[2]", "value": "not inhibited"}, {"measurement": "Inhibition of the purified enzyme (in words, summary of Table 3)", "setting": "[2]", "value": "not inhibited at all"}, {"measurement": "inhibition at 100 µM", "setting": "[2]", "value": 0, "unit": "%"}, {"measurement": "inhibition at 1000 µM", "setting": "[2]", "value": 0, "unit": "%"}]}, {"molecule": "phosphatidylethanolamine [PE]", "values": [{"measurement": "Degrading activity / hydrolysis by the enzyme (in words)", "setting": "[1]", "value": "does not show any degrading activity"}, {"measurement": "Specific activity", "setting": "[1]; [6]", "value": "Not degraded"}]}, {"molecule": "CCCCCCCCCCCCCCCC(=O)OC[C@@H](O)COP(=O)([O-])OCC[N+](C)(C)C", "note": "[Lyso PC, 1-palmitoyl-sn-glycero-3-phosphocholine]", "values": [{"measurement": "Degrading activity / hydrolysis by the enzyme (in words)", "setting": "[1]", "value": "absolutely no degrading activity"}, {"measurement": "Specific activity", "setting": "[1]; [6]", "value": "Not degraded"}]}, {"molecule": "[Ca+2].[Cl-].[Cl-]", "note": "[CaCl2, calcium chloride]", "values": [{"measurement": "Enhancement of enzyme activity (in words)", "setting": "[3]", "value": "slightly enhanced"}]}, {"molecule": "29 kDa subunit of the oxidized phospholipid degrading enzyme (enzyme) SGDENPASKPTPVQDVQGDGRWMSLHHRFVADSKDKEPEVVFIGDSLVQLMHQCEIWRELFSPLHALNFGIGGDSTQHVLWRLENGELEHIRPKIVVVWVGTNNHGHTAEQVTGGIKAIVQLVNERQPQARVVVLGLLPRGQHPTQLREKNRRVNELVRAALAGHPRAHFLDADPGFVHSDGTISHHDMYDYLHLSRLGYTPVCRALHSLLLRLLTQDQGQGGAPLPEPSP", "values": [{"measurement": "binding result", "setting": "[4]", "value": "binds"}]}, {"molecule": "45 kDa subunit of the oxidized phospholipid degrading enzyme (other) VLSQRQRDELNRAIADYLRSNGYEEAYSVFKKEAELDMNEELDKKYAGLLEKKWTSVIRLQKKVMELESKLNEAKEEFTSGGPLGQKRDPKEWIPRPPEKYALSGHRSPVTRVIFHPVFSVMVSASEDATIKVWDYETGDFERTLKGHTDSVQDISFDHSGKLLASCSADMTIKLWDFQGFECIRTMHGHDHNVSSVAIMPNGDHIVSASRDKTIKMWEVQTGYCVKTFTGHREWVRMVRPNQDGTLIASCSNDQTVRVWVVATKECKAELREHEHVVECISWAPESSYSSISEATGSETKKSGKPGPFLLSGSRDKTIKMWDVSTGMCLMTLVGHDNWVRGVLFHSGGKFILSCADDKTLRVWDYKNKRCMKTLNAHEHFVTSLDFHKTAPYVVTGSVDQTVKVWECR", "values": [{"measurement": "binding result", "setting": "[5]", "value": "binds"}]}]}
